The results in this text go back to patent publication US20260258032A1, “TYROSINE KINASE 2 INHIBITORS AND USES THEREOF” (BIOGEN MA INC., priority 2022, published 2026).

Structures can show the parent of a compound that is named as a salt. A value given as a limit tells only on which side of the number the result lay.

One assay deals with T1, JH2 domain of human Tyk2 (Homo sapiens, UniProt P29597).
T1 construct: 10×His-tagged TYK2 JH2 domain (amino acid 575-876)
The assay can be described thus: JH2 biochemical assay (TR-FRET probe displacement). The assay is classed as binding. Conditions: JH2 biochemical assay. The method in brief: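 10×His-tagged human TYK2 JH2 (aa 575-876, 2 nM) incubated 60 min with 2 nM fluorescent probe, 0.1 nM Tb anti-His antibody and compound (10-point 3-fold series from […] top). TR-FRET 520/495 nm ratio, falling with probe displacement, normalized and fitted to a 4-parameter logistic for IC50.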
Background: Time-resolved FRET reads energy transfer from a long-lived donor to a nearby acceptor.

Assay [1] has as its system Tyk2 kinase activity on STAT4. The assay can be described thus: pSTAT4 cell assay (MSD, NK92 cells). The assay is classed as cell-based. Particulars: compounds 1 hr, stimulated 15 minutes. Put shortly: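 Serum-starved NK92 cells, which natively express Tyk2 and STAT4, were pretreated for 1 h with a 10-point 4-fold dilution series from 10 μM. They were then stimulated with 30 ng/mL IL2 for 15 min. Phospho-STAT in lysates was quantified by MSD with anti-STAT4 antibodies, and IC50 was obtained from 4-parameter logistic fits.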

T1 sequence (P29597 575-876): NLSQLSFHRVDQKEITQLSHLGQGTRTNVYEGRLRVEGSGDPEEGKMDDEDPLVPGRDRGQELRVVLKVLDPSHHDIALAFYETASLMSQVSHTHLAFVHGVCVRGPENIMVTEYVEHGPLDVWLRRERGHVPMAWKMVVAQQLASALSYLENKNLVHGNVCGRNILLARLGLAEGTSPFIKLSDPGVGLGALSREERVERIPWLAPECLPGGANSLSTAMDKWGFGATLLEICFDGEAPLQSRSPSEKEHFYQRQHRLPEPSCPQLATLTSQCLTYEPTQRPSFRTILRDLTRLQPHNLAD

What is called IC50 is the midpoint of a concentration-inhibition curve. Read a low IC50 as inhibition by little substance. Take `COCCC1(C#N)CN(c2nc(C)cc(N3CC4(CC4)c4cnc(NC(C)=O)cc43)n2)C1` [Example 220, N-(1′-(2-(3-cyano-3-(2-methoxyethyl)azetidin-1-yl)-6-methylpyrimidin-4-yl)-1′,2′-dihydrospiro[cyclopropane-1,3′-pyrrolo[3,2-c]pyridin]-6′-yl)acetamide]: the values for the IC50 (on JH2 domain of human Tyk2; in assay [1]) were 10 to 100 nM and no less than 1000 nM, respectively.
Turning to `CC(=O)Nc1cc2c(cn1)C1(CC1)CN2c1cc(C)nc(N2CC(C)(C#N)C2)n1` [Example 221, N-(1′-(2-(3-cyano-3-methylazetidin-1-yl)-6-methylpyrimidin-4-yl)-1′,2′-dihydrospiro[cyclopropane-1,3′-pyrrolo[3,2-c]pyridin]-6′-yl)acetamide], the IC50 is no more than 10 nM on JH2 domain of human Tyk2 and 100 to 1000 nM in assay [1].
For the compound `CC(=O)Nc1cc2c(cn1)C1(CC1)CN2c1cc(C)nc(N2CC(C(F)F)C2)n1` [Example 222, N-(1′-(2-(3-(difluoromethyl)azetidin-1-yl)-6-methylpyrimidin-4-yl)-1′,2′-dihydrospiro[cyclopropane-1,3′-pyrrolo[3,2-c]pyridin]-6′-yl)acetamide], the IC50 was 10 to 100 nM on JH2 domain of human Tyk2 and no less than 1000 nM in assay [1].
With `CC(=O)Nc1cc2c(cn1)C1(CC1)CN2c1cc(C)nc(N2CC(C#N)(C(F)F)C2)n1` [Example 223, N-(1′-(2-(3-cyano-3-(difluoromethyl)azetidin-1-yl)-6-methylpyrimidin-4-yl)-1′,2′-dihydrospiro[cyclopropane-1,3′-pyrrolo[3,2-c]pyridin]-6′-yl)acetamide trifluoroacetate], the IC50 is 10 to 100 nM on JH2 domain of human Tyk2 and no less than 1000 nM in assay [1].
On the same counts, the results for `CC(=O)Nc1cc2c(cn1)C1(CC1)CN2c1cc(C)nc(N2CC(S(C)(=O)=O)C2)n1` [Example 224, N-(1′-(6-methyl-2-(3-(methylsulfonyl)azetidin-1-yl)pyrimidin-4-yl)-1′,2′-dihydrospiro[cyclopropane-1,3′-pyrrolo[3,2-c]pyridin]-6′-yl)acetamide] are 100 to 1000 nM and no less than 1000 nM.
Regarding `CCS(=O)(=O)C1CN(c2nc(C)cc(N3CC4(CC4)c4cnc(NC(C)=O)cc43)n2)C1` [Example 225, N-(1′-(2-(3-(ethylsulfonyl)azetidin-1-yl)-6-methylpyrimidin-4-yl)-1′,2′-dihydrospiro[cyclopropane-1,3′-pyrrolo[3,2-c]pyridin]-6′-yl)acetamide], the IC50 is 100 to 1000 nM at JH2 domain of human Tyk2 and no less than 1000 nM in assay [1].
Take `CC(=O)Nc1cc2c(cn1)C1(CC1)CN2c1cc(C)nc(N2CC(C)(O)C2)n1` [Example 226, N-(1′-(2-(3-hydroxy-3-methylazetidin-1-yl)-6-methylpyrimidin-4-yl)-1′,2′-dihydrospiro[cyclopropane-1,3′-pyrrolo[3,2-c]pyridin]-6′-yl)acetamide]: the IC50 on JH2 domain of human Tyk2 was 10 to 100 nM; in assay [1], no less than 1000 nM.
In the same order, the values of `CC(=O)Nc1cc2c(cn1)C1(CC1)CN2c1cc(C)nc(N2CCN(C)CC2)n1` [Example 227, N-(1′-(6-methyl-2-(4-methylpiperazin-1-yl)pyrimidin-4-yl)-1′,2′-dihydrospiro[cyclopropane-1,3′-pyrrolo[3,2-c]pyridin]-6′-yl)acetamide] are 100 to 1000 nM and no less than 1000 nM.
Consider `CC(=O)Nc1cc2c(cn1)C1(CC1)CN2c1cc(C)nc(N2CCC3(CC2)COC3)n1` [Example 228, N-(1′-(6-methyl-2-(2-oxa-7-azaspiro[3.5]nonan-7-yl)pyrimidin-4-yl)-1′,2′-dihydrospiro[cyclopropane-1,3′-pyrrolo[3,2-c]pyridin]-6′-yl)acetamide trifluoroacetate], for which the IC50 was 100 to 1000 nM on JH2 domain of human Tyk2 and no less than 1000 nM in assay [1].
Take `CC(=O)Nc1cc2c(cn1)C1(CC1)CN2c1cc(C)nc(N2CCC(F)(F)C2)n1` [Example 229, N-(1′-(2-(3,3-difluoropyrrolidin-1-yl)-6-methylpyrimidin-4-yl)-1′,2′-dihydrospiro[cyclopropane-1,3′-pyrrolo[3,2-c]pyridin]-6′-yl)acetamide]: the IC50 on JH2 domain of human Tyk2 was no more than 10 nM; in assay [1] it was 100 to 1000 nM.
With `COC1(C(=O)C2CC2)CCN(c2nc(C)cc(N3CC4(CC4)c4cnc(NC(C)=O)cc43)n2)CC1` [Example 231, N-(1′-(2-(4-(cyclopropanecarbonyl)-4-methoxypiperidin-1-yl)-6-methylpyrimidin-4-yl)-1′,2′-dihydrospiro[cyclopropane-1,3′-pyrrolo[3,2-c]pyridin]-6′-yl)acetamide trifluoroacetate], the IC50 was 100 to 1000 nM on JH2 domain of human Tyk2 and no less than 1000 nM in assay [1].
Turning to `CC(=O)Nc1cc2c(cn1)C1(CC1)CN2c1cc(C)nc(N2CCC(O)CC2)n1` [Example 232, N-(1′-(2-(4-hydroxypiperidin-1-yl)-6-methylpyrimidin-4-yl)-1′,2′-dihydrospiro[cyclopropane-1,3′-pyrrolo[3,2-c]pyridin]-6′-yl)acetamide], the figures for the IC50 (on JH2 domain of human Tyk2; in assay [1]) were 100 to 1000 nM and no less than 1000 nM, respectively.
With `COCCN1CCN(c2nc(C)cc(N3CC4(CC4)c4cnc(NC(C)=O)cc43)n2)CC1` [Example 233, N-(1′-(2-(4-(2-methoxyethyl)piperazin-1-yl)-6-methylpyrimidin-4-yl)-1′,2′-dihydrospiro[cyclopropane-1,3′-pyrrolo[3,2-c]pyridin]-6′-yl)acetamide trifluoroacetate], the IC50 (at JH2 domain of human Tyk2; in assay [1]) was no less than 1000 nM each time.
As to `COC1(C)CN(c2nc(C)cc(N3CC4(CC4)c4cnc(NC(C)=O)cc43)n2)C1` [Example 234, N-(1′-(2-(3-methoxy-3-methylazetidin-1-yl)-6-methylpyrimidin-4-yl)-1′,2′-dihydrospiro[cyclopropane-1,3′-pyrrolo[3,2-c]pyridin]-6′-yl)acetamide], the results for the IC50 (on JH2 domain of human Tyk2; in assay [1]) were 10 to 100 nM and 100 to 1000 nM, respectively.
For the compound `CC(=O)Nc1cc2c(cn1)C1(CC1)CN2c1cc(C)nc(N2CCC2C)n1` (stereo not shown) [Example 235, N-(1′-(6-methyl-2-(2-methylazetidin-1-yl)pyrimidin-4-yl)-1′,2′-dihydrospiro[cyclopropane-1,3′-pyrrolo[3,2-c]pyridin]-6′-yl)acetamide], the IC50 on JH2 domain of human Tyk2 was no more than 10 nM; in assay [1], 100 to 1000 nM.
On to `CC(=O)Nc1cc2c(cn1)C1(CC1)CN2c1cc(C)nc(N2CCC(C)(O)C2)n1` (stereo not shown) [Example 236, N-(1′-(2-(3-hydroxy-3-methylpyrrolidin-1-yl)-6-methylpyrimidin-4-yl)-1′,2′-dihydrospiro[cyclopropane-1,3′-pyrrolo[3,2-c]pyridin]-6′-yl)acetamide], for which the figures for the IC50 (on JH2 domain of human Tyk2; in assay [1]) were 10 to 100 nM and no less than 1000 nM, respectively.
`CC(=O)Nc1cc2c(cn1)C1(CC1)CN2c1cc(C)nc(N2CC(O)C2)n1` [Example 237, N-(1′-(2-(3-hydroxyazetidin-1-yl)-6-methylpyrimidin-4-yl)-1′,2′-dihydrospiro[cyclopropane-1,3′-pyrrolo[3,2-c]pyridin]-6′-yl)acetamide]: the figures for the IC50 (on JH2 domain of human Tyk2; in assay [1]) were 10 to 100 nM and no less than 1000 nM, respectively.
In the same order, the values of `CC(=O)Nc1cc2c(cn1)C1(CC1)CN2c1cc(-c2cn(C)nc2C)nc(C(C)(F)F)n1` [Example 239, N-(1′-(2-(1,1-difluoroethyl)-6-(1,3-dimethyl-1H-pyrazol-4-yl)pyrimidin-4-yl)-1′,2′-dihydrospiro[cyclopropane-1,3′-pyrrolo[3,2-c]pyridin]-6′-yl)acetamide trifluoroacetate] are no more than 10 nM and 10 to 100 nM.
For the compound `CC(=O)Nc1cc2c(cn1)C1(CC1)CN2c1cc(-c2cnn(C)c2C)nc(C(C)(F)F)n1` [Example 240, N-(1′-(2-(1,1-difluoroethyl)-6-(1,5-dimethyl-1H-pyrazol-4-yl)pyrimidin-4-yl)-1′,2′-dihydrospiro[cyclopropane-1,3′-pyrrolo[3,2-c]pyridin]-6′-yl)acetamide trifluoroacetate], the values for the IC50 (at JH2 domain of human Tyk2; in assay [1]) were no more than 10 nM and 10 to 100 nM, respectively.
In the case of `CC(=O)Nc1cc2c(cn1)C1(CC1)CN2c1cc(-c2ccn(C)n2)nc(C(C)(F)F)n1` [Example 241, N-(1′-(2-(1,1-difluoroethyl)-6-(1-methyl-1H-pyrazol-3-yl)pyrimidin-4-yl)-1′,2′-dihydrospiro[cyclopropane-1,3′-pyrrolo[3,2-c]pyridin]-6′-yl)acetamide], the IC50 on JH2 domain of human Tyk2 is no more than 10 nM; in assay [1], 10 to 100 nM.
On the same counts, the results for `CC(=O)Nc1cc2c(cn1)C1(CC1)CN2c1cc(-c2ccc(C)nc2)nc(C(C)(F)F)n1` [Example 242, N-(1′-(2-(1,1-difluoroethyl)-6-(6-methylpyridin-3-yl)pyrimidin-4-yl)-1′,2′-dihydrospiro[cyclopropane-1,3′-pyrrolo[3,2-c]pyridin]-6′-yl)acetamide] are no more than 10 nM and 10 to 100 nM.
Regarding `COc1ccc(-c2cc(N3CC4(CC4)c4cnc(NC(C)=O)cc43)nc(C(C)(F)F)n2)cn1` [Example 243, N-(1′-(2-(1,1-difluoroethyl)-6-(6-methoxypyridin-3-yl)pyrimidin-4-yl)-1′,2′-dihydrospiro[cyclopropane-1,3′-pyrrolo[3,2-c]pyridin]-6′-yl)acetamide trifluoroacetate], the IC50 on JH2 domain of human Tyk2 was no more than 10 nM; in assay [1], 10 to 100 nM.
Take `CC(=O)Nc1cc2c(cn1)C1(CC1)CN2c1cc(C)nc(-c2ccn(C)n2)n1` [Example 244, N-(1′-(6-methyl-2-(1-methyl-1H-pyrazol-3-yl)pyrimidin-4-yl)-1′,2′-dihydrospiro[cyclopropane-1,3′-pyrrolo[3,2-c]pyridin]-6′-yl)acetamide trifluoroacetate]: the values for the IC50 (on JH2 domain of human Tyk2; in assay [1]) were 10 to 100 nM and no less than 1000 nM, respectively.
